The source of these data is US5462936A, “Benzothiazepine derivatives” (Shionogi & Co., Ltd., priority 1991, dated 1995).

Structures are written as SMILES.

For assay [1], the target named is Calcium Channel (Oryctolagus cuniculus, UniProt P15381). In words: Calcium channel antagonism: relaxing action on extracted blood vessel (rabbit femoral artery, contracture by 50 mM KCl). The conditions noted are these: 50 mM KCl contracture, 50% of maximum relaxing (0.1 mM papaverine). As for the experimental part: (§1) Calcium Channel Antagonism and […] Action (Relaxing Action on Extracted Blood Vessel)
(§2) Male rabbits weighing 2-3 kg (Rabiton, Japanese albino species) were anesthetized through intravenous administration of pentobarbital (50 mg/kg), and sacrificed by bloodletting through dissection of axillary artery. Femoral artery was extracted, connective tissue surrounding the artery was removed, and helical specimen was prepared. The specimen was suspended in an organ bath (20 cc) filled with 37° C. Krebs-Henseleit nutritious solution and bubbled with a 95% O2 +5% CO2 mixed gas. 1.5 g of resting tension was loaded on femoral artery. Isometric change of the tension of the specimen was recorded on a thermal recorder (Nippon Koden WT-685G) via F-D pickup Nippon Koden (TB611T) and Preamp (Nippon Koden). Ca-antagonism of a test compound was evaluated by observing relaxing action due to accumulative addition of the compound on the contracture caused by the application of 50 mM KCl. α-Blocking action was similarly evaluated by observing such relaxing action on the contracture caused by the application of 1 μM norepinephrine (NE). […] The concentration of a given compound, which is necessary for giving 50% of the maximum relaxing (IC50), was determined using the above system.

For assay [2], the system named is femoral artery. The assay is described as follows: α-Blocking action: relaxing action on extracted blood vessel (rabbit femoral artery, contracture by 1 μM norepinephrine). The conditions noted are these: Oryctolagus cuniculus, 1 μM norepinephrine contracture, 50% of maximum relaxing (0.1 mM papaverine), read-out: Relaxing action on Blood Vessel IC50, 1 μM-NE. As for the experimental part:
as §1, §2

For assay [3], the system named is cultured cardiac cells. The assay is described as follows: Anti-hypoxia action on cultured cardiac cells (inhibition of CPK leakage). It is filed as cell-based, rat (newborn Crj-SD). The conditions noted are these: Rattus norvegicus, read-out: Anti-hypoxia Activity (%), rate of inhibition on CPK leakage. As for the experimental part:
Anti-hypoxia action of the compounds of the present invention were investigated through studying their action in connection with the protection of cardiomuscular cells.
Primary culture of cardiac cells was prepared from newborn Crj-SD rats (2-3 day old) and used in the experiment. The primary culture was prepared according to the method described by Jones R. L. et al., Am. J. Pathol., 135, 541-556, 1989. Thus, cardiac cells were isolated from ventricle muscle using collagenase and pancreatin, and then the cardiac cells were separated and purified from cell debris, erythrocytes, and fibroblasts by means of Percoll density-gradient centrifugation. The cells were spread on a culture plate at a ratio of 2-3×10^5 cells/3.5 cm plate, and the cells were cultured for two days in Dulbecco's Modified Eagle's Medium (DMEM) containing 10% Fetal Bovine Serum (FBS) in an incubator (5% CO2 /95% Air) kept at 37° C. After sufficient growth of the cardiac cells, the culture medium was changed to DMEM free from FBS, and the culture was continued additional one day. The cells thus obtained were used in the experiment.
Hypoxia was generated using Gas Pak™ Anaerobic Chamber (BBL) which produces hypoxia by capturing residual O2 and changing it into H2 0 by the action of a H2 /CO2 generating bag and catalyst. The cardiac cell plate, wherein the culture medium had been changed to DMEM which is free from FBS and glucose, was set in the chamber, and the chamber was placed in an incubator. Anti-hypoxia activity of test compounds was determined by measuring inhibition rate of leakage of creatine phosphokinase activity into the culture medium.
The compounds tested were all dissolved in DMSO using HCO-50 as a solubilizing agent (DMSO:HCO-50=9:1), and directly charged onto the culture plate. The final concentrations of DMSO and HCO-50 in the culture medium were adjusted to 0.09% and 0.01% respectively. CPK activity was measured by colorimetry (Wako Kit) modified from Oliver method.
The numerical values in the table show cardiac cells-protecting activity of test compounds in terms of the rate (%) of inhibition on CPK leakage determined in connection with the test compounds when the amount of the CPK leakage for negative control (no addition of the test compounds) was defined as 100%.

For assay [4], the system named is spontaneous hypertensive rats (SHR). In words: Action on blood pressure and heart rate of not-anesthetized SHR. It is filed as in vivo, rat (SHR). The settings on record: 2 and 4 hours after administration; for Antihypertensive action (%): decrease in SBP.
Description: Action of the compounds of the invention on blood pressure and heart rate of not-anesthetized spontaneous hypertensive rats (SHR)
Male Japanese Charles-River SHR (13-17 week old) were used in the experiment (S. Matsuda, J. Pharmacol. Method, 17 361, 1987). Systolic blood pressure (SBP) and heart rate of the animals were measured non-invasively (indirectly) using hemadynamometer for caudal artery pressure (6 channel type) before the administration of test compounds, at 2 and 4 hours after administration. Test compounds were dissolved in DMSO (100%) and orally administered. Decreased values in SBP and heart rate determined 2 and 4 hours after administration when compared with those determined before administration are shown in percentage (%) in the following table.
Assay [5] concerns cardiac muscle damage due to ischemia. The assay is described as follows: Anti-necrosis activity (left coronary ligation and reperfusion, CPK retention in left ventricle). It is filed as in vivo, rat (Wistar). The conditions noted are these: Rattus norvegicus; for inhibition in vivo at 0.3 mg/kg: 0.3 mg/kg iv; for inhibition in vivo at 1 mg/kg: 1 mg/kg iv. As for the experimental part:
Male Sic Wistar rats weighing 200-250 g were anesthetized with urethane (1 g/kg), and ramus descendens of the left coronaria was ligated for 20 minutes and then reperfused according to the method described by Hock et al (Hock, […]., Am. Heart J., 109 222, 1985). […] For three hours after the reperfusion, the rats were subjected to heat insulation on a warming mat. After 120 minutes, the hearts were extracted, and the free walls of the left ventricles were frozen and storred until determination of CPK activity. CPK activity was determined according to the method of Bernauer, W. (Arch. int. Pharmacodyn., 231 90, 1978) after minor modification. Thus, the extracted tissue was homogenized in 10 volumes of 0.1M Tris/HCl (pH 7.5) containing 1 mM mercaptoethanol and centrifuged at 20,000 g for 20 minutes. The supernatant was used for determination of CPK activity, which was conducted using a commercially available kit (CPK-Test, Wako). CPK was determined using serum CPK as a standard and expressed with "U/mg protein". […] The degree of the inhibition was measured in terms of the CPK activity retained in the left ventricle. The test results are shown in Table 7, wherein percentage of the retention (%) at each dose was calculated based on the following equation.

Chain of Calcium Channel (P15381 whole entry): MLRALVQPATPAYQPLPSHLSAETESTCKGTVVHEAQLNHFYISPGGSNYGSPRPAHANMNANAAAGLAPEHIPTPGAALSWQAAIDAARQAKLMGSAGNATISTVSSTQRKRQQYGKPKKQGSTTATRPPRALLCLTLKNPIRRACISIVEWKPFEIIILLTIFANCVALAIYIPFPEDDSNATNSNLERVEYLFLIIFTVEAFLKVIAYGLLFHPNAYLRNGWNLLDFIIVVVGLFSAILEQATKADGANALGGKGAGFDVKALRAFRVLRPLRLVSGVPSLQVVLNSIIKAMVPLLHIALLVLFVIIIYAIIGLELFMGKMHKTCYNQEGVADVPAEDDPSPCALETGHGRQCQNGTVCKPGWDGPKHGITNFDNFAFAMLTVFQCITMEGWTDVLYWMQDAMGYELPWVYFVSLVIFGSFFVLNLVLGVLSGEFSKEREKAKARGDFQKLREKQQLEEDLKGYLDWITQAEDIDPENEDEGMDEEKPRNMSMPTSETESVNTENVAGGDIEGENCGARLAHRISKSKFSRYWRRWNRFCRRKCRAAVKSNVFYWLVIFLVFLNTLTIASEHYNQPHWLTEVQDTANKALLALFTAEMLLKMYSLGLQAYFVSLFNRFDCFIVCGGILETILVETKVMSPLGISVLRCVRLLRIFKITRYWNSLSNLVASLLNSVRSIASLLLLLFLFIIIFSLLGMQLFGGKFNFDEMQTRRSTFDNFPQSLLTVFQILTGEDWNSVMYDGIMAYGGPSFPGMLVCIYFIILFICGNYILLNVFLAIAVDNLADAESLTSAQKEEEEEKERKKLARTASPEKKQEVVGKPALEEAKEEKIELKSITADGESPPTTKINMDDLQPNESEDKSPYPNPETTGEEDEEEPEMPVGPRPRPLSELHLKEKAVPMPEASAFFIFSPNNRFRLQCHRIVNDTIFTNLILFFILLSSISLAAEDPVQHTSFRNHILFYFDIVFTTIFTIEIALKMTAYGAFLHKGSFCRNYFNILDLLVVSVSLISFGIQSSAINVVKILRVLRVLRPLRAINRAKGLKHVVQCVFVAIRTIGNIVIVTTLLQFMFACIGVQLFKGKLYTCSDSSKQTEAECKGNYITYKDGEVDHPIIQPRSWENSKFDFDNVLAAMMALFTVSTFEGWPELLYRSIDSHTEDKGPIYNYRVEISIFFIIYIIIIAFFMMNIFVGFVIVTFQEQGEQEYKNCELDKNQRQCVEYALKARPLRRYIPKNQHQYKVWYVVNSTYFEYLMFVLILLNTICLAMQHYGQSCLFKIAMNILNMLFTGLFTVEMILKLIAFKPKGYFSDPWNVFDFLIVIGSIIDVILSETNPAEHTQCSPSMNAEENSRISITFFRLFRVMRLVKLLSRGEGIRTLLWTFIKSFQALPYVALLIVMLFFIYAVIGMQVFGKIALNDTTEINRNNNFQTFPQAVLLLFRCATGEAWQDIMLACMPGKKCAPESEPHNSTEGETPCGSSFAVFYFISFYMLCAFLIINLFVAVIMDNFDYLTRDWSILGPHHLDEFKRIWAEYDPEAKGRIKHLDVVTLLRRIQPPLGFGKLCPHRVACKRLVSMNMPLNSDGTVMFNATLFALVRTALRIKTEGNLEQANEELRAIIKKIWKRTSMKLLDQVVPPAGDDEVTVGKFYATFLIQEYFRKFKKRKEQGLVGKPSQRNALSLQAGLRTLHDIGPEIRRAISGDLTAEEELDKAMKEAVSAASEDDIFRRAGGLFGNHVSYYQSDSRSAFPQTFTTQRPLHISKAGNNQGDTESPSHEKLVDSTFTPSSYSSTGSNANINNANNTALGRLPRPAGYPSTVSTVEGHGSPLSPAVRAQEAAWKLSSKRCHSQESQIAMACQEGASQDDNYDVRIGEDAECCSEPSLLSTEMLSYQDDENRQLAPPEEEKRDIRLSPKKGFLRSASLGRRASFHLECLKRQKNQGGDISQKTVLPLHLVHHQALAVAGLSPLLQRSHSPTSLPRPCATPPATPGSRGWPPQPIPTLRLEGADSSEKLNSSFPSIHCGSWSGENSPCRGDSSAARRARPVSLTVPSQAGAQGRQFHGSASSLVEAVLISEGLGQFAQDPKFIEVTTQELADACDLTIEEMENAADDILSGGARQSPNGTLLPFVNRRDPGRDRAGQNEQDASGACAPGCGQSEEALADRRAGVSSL
Chain of Calcium Channel (P13806 27-960 partner limits assumed): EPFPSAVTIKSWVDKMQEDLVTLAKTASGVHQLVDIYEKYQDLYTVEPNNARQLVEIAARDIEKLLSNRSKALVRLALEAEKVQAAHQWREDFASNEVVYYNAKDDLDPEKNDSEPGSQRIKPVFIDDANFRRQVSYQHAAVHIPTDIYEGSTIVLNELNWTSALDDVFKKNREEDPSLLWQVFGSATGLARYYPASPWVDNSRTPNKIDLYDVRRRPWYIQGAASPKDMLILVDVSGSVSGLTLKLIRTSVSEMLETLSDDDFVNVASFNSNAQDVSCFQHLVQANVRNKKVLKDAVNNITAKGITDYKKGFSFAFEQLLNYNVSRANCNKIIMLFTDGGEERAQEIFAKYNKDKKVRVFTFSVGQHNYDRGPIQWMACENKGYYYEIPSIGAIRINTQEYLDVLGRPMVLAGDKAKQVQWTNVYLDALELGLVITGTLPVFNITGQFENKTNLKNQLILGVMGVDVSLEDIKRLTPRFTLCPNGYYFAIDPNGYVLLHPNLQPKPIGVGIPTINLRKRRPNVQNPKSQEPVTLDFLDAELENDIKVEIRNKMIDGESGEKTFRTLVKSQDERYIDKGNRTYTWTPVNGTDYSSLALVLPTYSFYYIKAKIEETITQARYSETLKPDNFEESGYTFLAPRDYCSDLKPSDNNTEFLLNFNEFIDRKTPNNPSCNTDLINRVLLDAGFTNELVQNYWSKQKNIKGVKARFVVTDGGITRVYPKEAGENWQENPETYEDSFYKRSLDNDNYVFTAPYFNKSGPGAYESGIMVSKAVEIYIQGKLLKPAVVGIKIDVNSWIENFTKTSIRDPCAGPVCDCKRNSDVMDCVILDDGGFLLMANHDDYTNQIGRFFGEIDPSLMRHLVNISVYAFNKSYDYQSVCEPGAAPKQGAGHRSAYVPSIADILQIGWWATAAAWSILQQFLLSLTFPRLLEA
Chain of Calcium Channel (P13806 961-1106 partner limits assumed): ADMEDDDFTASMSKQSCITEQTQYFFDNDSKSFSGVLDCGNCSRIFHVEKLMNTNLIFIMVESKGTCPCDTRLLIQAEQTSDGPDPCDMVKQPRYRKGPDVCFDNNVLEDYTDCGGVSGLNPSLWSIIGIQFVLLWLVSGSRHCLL

What is called IC50 is the concentration needed to halve the response being measured. Usually inhibition stands for the percentage by which the read-out fell short of the control. What is called inhibition in vivo is the drop in the measured response relative to a control, in per cent. High values mean a strong effect, low ones a weak effect. For `COc1ccc([C@@H]2Sc3cc(Cl)ccc3N(CCCN3CCN(c4ccccc4OC)CC3)C(=O)[C@@H]2OC(C)=O)cc1` (relative stereo) [Compound I-8, 3-Acetoxy-5-[3-(4-(2-methoxyphenyl)-piperazinyl)propyl]-2,3-dihydro-2-(4-methoxyphenyl)-8-chloro-1,5-benzothiazepin-4(5H)-one], the IC50 in assay [1] stood at 280 nM. Further, the IC50 in assay [2] stood at 60 nM. Besides, in assay [3], the inhibition at 1 µM was 17% and the inhibition at 10 µM was 70%. In assay [4] (30 mg/kg PO), the “Decrease of heart rate (%)” value was determined as 3.2% and the “Antihypertensive action (%)” value is recorded as 15%. In assay [5], this compound registered an inhibition in vivo at 0.3 mg/kg of 29%.
In the case of `COc1ccc([C@@H]2Sc3cc(Cl)ccc3N(CCCN3CCN(c4ccccc4OC)CC3)C(=O)[C@@H]2OC(C)=O)cc1.Cl` [Compound I-18, (2S-cis)-3-Acetoxy-5-[3-(4-(2-methoxyphenyl) -1-piperazinyl)propyl]-2,3-dihydro-2(4-methoxyphenyl) -8-chloro-1,5-benzothiazepin-4(5H)-one hydrochloride], the IC50 in assay [1] came to 250 nM. In assay [2], the IC50 was determined as 37 nM. In addition, in assay [3], the inhibition at 1 µM stood at 23.7% and the inhibition at 10 µM came to 73.9%. Moreover, in assay [4] (30 mg/kg PO), the “Decrease of heart rate (%)” value came out at 7.0% and the “Antihypertensive action (%)” value amounted to 18%. The inhibition in vivo at 0.1 mg/kg in assay [5] (0.1 mg/kg iv) came out at 30%. In assay [5], this compound gave an inhibition in vivo at 0.3 mg/kg of 42%.
Turning to `COc1ccc([C@@H]2Sc3cc(Cl)ccc3N(CCCN3CCN(C(c4ccccc4)c4ccccc4)CC3)C(=O)[C@@H]2OC(C)=O)cc1` [Compound I-23, (2S-cis)-3-Acetoxy-5-[3-(4-(benzhydryl)-piperazinyl)propyl]-2,3-dihydro-2-(4-methoxyphenyl)-8-chloro-1,5-benzothiazepin-4(5H)-one], in assay [3], the inhibition at 1 µM worked out at 36.4% and the inhibition at 10 µM turned out to be 87%. In addition, in assay [4] (30 mg/kg PO), the “Decrease of heart rate (%)” value amounted to 12% and the “Antihypertensive action (%)” value is 16%. The compound also yielded an inhibition in vivo at 0.3 mg/kg in assay [5] of 45%.
Take `COc1ccc([C@@H]2Sc3cc(OC)ccc3N(CCCN3CCN(c4ccccc4OC)CC3)C(=O)[C@@H]2OC(C)=O)cc1` [Compound I-35, (2S-cis)-3-Acetoxy-5-[3-(4-(2-methoxyphenyl)-1-piperazinyl)propyl]-2,3-dihydro-2-(4-methoxyphenyl)-8-methoxy-l,5-benzothiazepin-4(5H)-one]: the IC50 in assay [1] worked out at 120 nM; in assay [2], 30 nM. In assay [5], this compound gave an inhibition in vivo at 1 mg/kg of 37%.
Consider `COc1ccc([C@@H]2Sc3cc(C)ccc3N(CCCN3CCN(c4ccccc4OC)CC3)C(=O)[C@@H]2OC(C)=O)cc1` [Compound I-36, (2S-cis)-3-Acetoxy-5-[3-(4-(2methoxyphenyl) - 1-piperazinyl)propyl]-2,3-dihydro-2-(4-methoxyphenyl)-8-methyl-1,5-benzothiazepin-4 (5H)-one], for which the IC50 in assay [1] was 140 nM; in assay [2] it was 20 nM. Also, in assay [5], the inhibition in vivo at 1 mg/kg stood at 30%.
As to `COc1ccc([C@@H]2Sc3cc(Cl)ccc3N(CCCN3CCN(C(c4ccccc4)c4ccc(Cl)cc4)CC3)C(=O)[C@@H]2OC(C)=O)cc1` (stereo partly drawn) [Compound I-22, (2S-cis)-3-Acetoxy-5-[3-(4-(4-chlorobenzhydryl)-1-piperazinyl)propyl]-2,3-dihydro-2-(4-methoxyphenyl)-8-chloro-l,5-benzothiazepin-4(5H)-one], in assay [1], the IC50 is 340 nM. Moreover, in assay [3], the inhibition at 1 µM stood at 25.7% and the inhibition at 10 µM was found to be 73.9%. For the same compound, in assay [4] (30 mg/kg PO), the “Decrease of heart rate (%)” value is listed as 9.4% and the “Antihypertensive action (%)” value is recorded as 18%. Further, the inhibition in vivo at 0.3 mg/kg in assay [5] is 45%.
Turning to `COc1ccc([C@@H]2Sc3cc(Cl)ccc3N(CCCN3CCN(C(c4ccc(F)cc4)c4ccc(F)cc4)CC3)C(=O)[C@@H]2OC(C)=O)cc1` (relative stereo) [Compound I-15, 3-Acetoxy-5-[3-(4-(4,4'-difluorobenzhydryl) -1-piperazinyl)propyl]-2,3-dihydro-2-(4-methoxyphenyl)-8-chloro-1,5-benzothiazepin-4(5H)-one], the IC50 in assay [1] was determined as 57 nM. In addition, the IC50 in assay [2] came to 600 nM. The inhibition at 10 µM in assay [3] came out at 76%. In assay [4] (60 mg/kg PO), the “Decrease of heart rate (%)” value is 6.5% and the “Antihypertensive action (%)” value is given as 17%.
`COc1ccc([C@@H]2Sc3ccccc3N(CCN(C)C)C(=O)[C@@H]2OC(C)=O)cc1` [Diltiazem, reference compound]: in assay [2], the 50% inhibitory concentration (IC50) was found to be 13300 nM. Moreover, in assay [3], the inhibition at 1 µM is 10% and the inhibition at 10 µM worked out at 29%. For the same compound, in assay [4] (60 mg/kg PO), the “Decrease of heart rate (%)” value is given as 15% and the “Antihypertensive action (%)” value came to 11%. In assay [5], this compound showed an inhibition in vivo at 1 mg/kg of 13%.
